Like-named read-outs stand apart in the source and are kept apart here.
What was measured:
[1] = system: PC-3 (prostate cancer) cell line; assay: SRB in-vitro cytotoxicity assay, PC-3; conditions: Homo sapiens
Protocol: (§1) All the ring annulated analogues of cannabinoid were evaluated for their cytotoxicity against number of human cancer cell lines. To evaluate the in-vitro cytotoxicity, a sulphorhodamine B (SRB) assay was carried out. SRB is a negatively charged pink aminoxanthine dye that binds to the basic amino acid of cells in mildly acidic conditions and is removed in basic conditions. […] When cells reached 60-70% confluency, trypsinized and seeded in 96 well plates according to their inoculation density and incubated for 24 hours to attain their proper morphology. Next-day cells were again incubated for 48 hours with test compounds or paclitaxel (positive control). Next, cells were fixed with 50% of ice-cold TCA for 1 hours, washed with distilled water, and kept for air drying. Air-dried plates were then stained with 0.4% SRB dye for 30 minutes and subsequently with water and 1% v/v glacial acetic acid were then kept for air drying. […] The viability of cells is measured based on bound dye after fixation, which is measured by absorbance at 540 nm.

[2] = system: U251 (glioblastoma) cell line; assay: SRB in-vitro cytotoxicity assay, U251; conditions: Homo sapiens
Protocol: as §1

[3] = system: A549 (lung cancer) cell line; assay: SRB in-vitro cytotoxicity assay, A549; conditions: Homo sapiens
Protocol: as §1

[4] = system: HCT-116 (colorectal cancer) cell line; assay: SRB in-vitro cytotoxicity assay, HCT-116; conditions: Homo sapiens
Protocol: as §1

[5] = system: MCF-7 (breast cancer) cell line; assay: SRB in-vitro cytotoxicity assay, MCF-7; conditions: Homo sapiens
Protocol: as §1

in vitro = conditions: human
Protocol: as §1

[6] = system: HEK-293 (normal cell lines); assay: SRB in-vitro cytotoxicity assay, HEK-293; conditions: Homo sapiens, HEK293, read-out: inhibition against HEK-293 cell lines
Protocol: as §1

[7] = system: Mia-PaCa (pancreatic cancer) cell line; assay: SRB in-vitro cytotoxicity assay, Mia-PaCa; conditions: Homo sapiens
Protocol: as §1

[8] = 48 h, read-out: Cytotoxicity (in vitro cell inhibition) PC3
[9] = PC-3, read-out: inhibition against PC3 cell lines
[10] = U-251, 48 h, read-out: Cytotoxicity (in vitro cell inhibition) U251
[11] = A549, 48 h, read-out: Cytotoxicity (in vitro cell inhibition) A549
[12] = A549, read-out: inhibition against A549 cell lines
[13] = HCT-116, 48 h, read-out: Cytotoxicity (in vitro cell inhibition) HCT-116
[14] = HCT-116, read-out: inhibition against HCT-116 cell lines
[15] = MCF7, 48 h, read-out: Cytotoxicity (in vitro cell inhibition) MCF-7
[16] = MCF7, read-out: inhibition against MCF-7 cell lines
[17] = U-251, read-out: inhibition against U251 cell lines
[18] = MIA PaCa-2, 48 h, read-out: Cytotoxicity (in vitro cell inhibition) Mia-PaCa
[19] = MIA PaCa-2, read-out: inhibition against Mia-PaCa cell lines

C=C(C)[C@@H]1CCC(C)=C[C@H]1c1c(O)cc(CCCCC)cc1O [IIa, cannabidiol]
> 50%: inhibition at 20 µM [1, 9] | inhibition at 20 µM [5, 16]
> 70%: inhibition at 20 µM [3, 11] | inhibition at 20 µM [3, 12] | inhibition at 20 µM [4, 13] | inhibition at 20 µM [4, 14]
< 50%: inhibition at 20 µM [2, 10]
50 to 70%: inhibition at 20 µM [1, 8] | inhibition at 20 µM [5, 15]

C=C(C)[C@@H]1CCC(C)=C[C@H]1c1c(O)cc(CCCCC)c2c1OCN(C)C2 [Ia, (N-methyldihydrol-2H-oxazinyl)-cannabidiol]
50 to 70%: inhibition at 20 µM [4, 13]
> 70%: inhibition at 20 µM (in vitro) | inhibition at 20 µM [6] | inhibition at 20 µM [1, 8] | inhibition at 20 µM [1, 9] | inhibition at 20 µM [2, 10] | inhibition at 20 µM [2, 17] | inhibition at 20 µM [3, 11] | inhibition at 20 µM [3, 12] | inhibition at 20 µM [7, 18] | inhibition at 20 µM [7, 19] | inhibition at 20 µM [5, 15] | inhibition at 20 µM [5, 16]
> 50%: inhibition at 20 µM [4, 14]

C=C(C)[C@@H]1CCC(C)=C[C@H]1c1c(O)cc(CCCCC)c2c1OCN(CC)C2 [Ib, (N-ethyldihydrol-2H-oxazinyl)-cannabidiol]
> 50%: inhibition at 20 µM [6] | inhibition at 20 µM [2, 17] | inhibition at 20 µM [4, 14]
> 70%: inhibition at 20 µM [1, 8] | inhibition at 20 µM [1, 9] | inhibition at 20 µM [3, 11] | inhibition at 20 µM [3, 12] | inhibition at 20 µM [7, 18] | inhibition at 20 µM [7, 19] | inhibition at 20 µM [5, 15] | inhibition at 20 µM [5, 16]
50 to 70%: inhibition at 20 µM (in vitro) | inhibition at 20 µM [2, 10] | inhibition at 20 µM [4, 13]

C=C(C)[C@@H]1CCC(C)=C[C@H]1c1c(O)cc(CCCCC)c2c1OCN(CCC)C2 [Ic, (N-propyldihydrol-2H-oxazinyl)-cannabidiol]
< 50%: inhibition at 20 µM (in vitro)
50 to 70%: inhibition at 20 µM [1, 8] | inhibition at 20 µM [2, 10] | inhibition at 20 µM [3, 11] | inhibition at 20 µM [4, 13]
> 70%: inhibition at 20 µM [7, 18] | inhibition at 20 µM [7, 19] | inhibition at 20 µM [5, 15] | inhibition at 20 µM [5, 16]
> 50%: inhibition at 20 µM [1, 9] | inhibition at 20 µM [2, 17] | inhibition at 20 µM [3, 12] | inhibition at 20 µM [4, 14]

C=C(C)[C@@H]1CCC(C)=C[C@H]1c1c(O)cc(CCCCC)c2c1OCN(CCCC)C2 [Id, (N-butyldihydrol-2H-oxazinyl)-cannabidiol]
> 70%: inhibition at 20 µM [1, 8] | inhibition at 20 µM [1, 9] | inhibition at 20 µM [3, 11] | inhibition at 20 µM [3, 12] | inhibition at 20 µM [7, 18] | inhibition at 20 µM [7, 19] | inhibition at 20 µM [4, 13] | inhibition at 20 µM [4, 14] | inhibition at 20 µM [5, 15] | inhibition at 20 µM [5, 16]
17.4 µM: IC50 ([2]; U-251, read-out: IC50 against U251)
11.5 µM: IC50 ([7]; MIA PaCa-2, read-out: IC50 against Mia-PaCa-2)
4.2 µM: IC50 ([1]; read-out: IC50 against PC-3)
50 to 70%: inhibition at 20 µM [2, 10]
> 50%: inhibition at 20 µM [2, 17]
4.1 µM: IC50 ([4]; HCT-116, read-out: IC50 against HCT-116)
< 50%: inhibition at 20 µM (in vitro)
9.36 µM: IC50 ([3]; A549, read-out: IC50 against A549)
2.89 µM: IC50 ([5]; MCF7, read-out: IC50 against MCF-7)

C=C(C)[C@@H]1CCC(C)=C[C@H]1c1c(O)cc(CCCCC)c2c1OCN(CCCCCC)C2 [Ie, (N-hexyldihydrol-2H-oxazinyl)-cannabidiol]
> 70%: inhibition at 20 µM [4, 13] | inhibition at 20 µM [4, 14] | inhibition at 20 µM [5, 15] | inhibition at 20 µM [5, 16]
< 50%: inhibition at 48 h, 20 µM (in vitro) | inhibition at 20 µM [1, 8] | inhibition at 20 µM [2, 10] | inhibition at 20 µM [3, 11] | inhibition at 20 µM [7, 18]

C=C(C)[C@@H]1CCC(C)=C[C@H]1c1c(O)cc(CCCCC)c2c1OCN(CCCN1CCOCC1)C2 [If, (N-morpholinopropyldihydrol-2H-oxazinyl)-cannabidiol]
50 to 70%: inhibition at 48 h, 20 µM (in vitro) | inhibition at 20 µM [4, 13]
> 70%: inhibition at 20 µM [1, 8] | inhibition at 20 µM [1, 9] | inhibition at 20 µM [2, 10] | inhibition at 20 µM [2, 17] | inhibition at 20 µM [3, 11] | inhibition at 20 µM [3, 12] | inhibition at 20 µM [7, 18] | inhibition at 20 µM [7, 19] | inhibition at 20 µM [5, 15] | inhibition at 20 µM [5, 16]
> 50%: inhibition at 20 µM [6] | inhibition at 20 µM [4, 14]

C=C(C)[C@@H]1CCC(C)=C[C@H]1c1c(O)cc(CCCCC)c2c1OCN(C1CC1)C2 [Ig, (N-cyclopropyldihydrol-2H-oxazinyl)-cannabidiol]
> 50%: inhibition at 20 µM [1, 9] | inhibition at 20 µM [3, 12] | inhibition at 20 µM [4, 14] | inhibition at 20 µM [5, 16]
50 to 70%: inhibition at 20 µM [1, 8] | inhibition at 20 µM [3, 11] | inhibition at 20 µM [4, 13] | inhibition at 20 µM [5, 15]
< 50%: inhibition at 20 µM (in vitro) | inhibition at 20 µM [2, 10] | inhibition at 20 µM [7, 18]

C=C(C)[C@@H]1CCC(C)=C[C@H]1c1c(O)cc(CCCCC)c2c1OCN(C1CCC1)C2 [Ih, (N-cyclobutyldihydrol-2H-oxazinyl)-cannabidiol]
> 50%: inhibition at 20 µM [6] | inhibition at 20 µM [2, 17] | inhibition at 20 µM [3, 12] | inhibition at 20 µM [4, 14]
50 to 70%: inhibition at 20 µM (in vitro) | inhibition at 20 µM [2, 10] | inhibition at 20 µM [3, 11] | inhibition at 20 µM [4, 13]
> 70%: inhibition at 20 µM [1, 8] | inhibition at 20 µM [1, 9] | inhibition at 20 µM [7, 18] | inhibition at 20 µM [7, 19] | inhibition at 20 µM [5, 15] | inhibition at 20 µM [5, 16]

C=C(C)[C@@H]1CCC(C)=C[C@H]1c1c(O)cc(CCCCC)c2c1OCN(C1CCCCCC1)C2 [Ii, (N-cycloheptyldihydrol-2H-oxazinyl)-cannabidiol]
50 to 70%: inhibition at 20 µM [1, 8] | inhibition at 20 µM [4, 13]
> 70%: inhibition at 20 µM [3, 11] | inhibition at 20 µM [3, 12] | inhibition at 20 µM [7, 18] | inhibition at 20 µM [7, 19] | inhibition at 20 µM [5, 15] | inhibition at 20 µM [5, 16]
> 50%: inhibition at 20 µM [1, 9] | inhibition at 20 µM [4, 14]
< 50%: inhibition at 48 h, 20 µM (in vitro) | inhibition at 20 µM [2, 10]

C=C(C)[C@@H]1CCC(C)=C[C@H]1c1c(O)cc(CCCCC)c2c1OCN(c1ccccc1)C2 [Ij, (N-phenyldihydrol-2H-oxazinyl)-cannabidiol]
< 50%: inhibition at 48 h, 20 µM (in vitro) | inhibition at 20 µM [1, 8] | inhibition at 20 µM [2, 10] | inhibition at 20 µM [3, 11] | inhibition at 20 µM [7, 18] | inhibition at 20 µM [4, 13] | inhibition at 20 µM [5, 15]

C=C(C)[C@@H]1CCC(C)=C[C@H]1c1c(O)cc(CCCCC)c2c1OCN(c1ccc(C(C)C)cc1)C2 [Ik, (N-isopropylphenyldihydrol-2H-oxazinyl)-cannabidiol]
< 50%: inhibition at 48 h, 20 µM (in vitro) | inhibition at 20 µM [1, 8] | inhibition at 20 µM [2, 10] | inhibition at 20 µM [3, 11] | inhibition at 20 µM [7, 18] | inhibition at 20 µM [4, 13] | inhibition at 20 µM [5, 15]

C=C(C)[C@@H]1CCC(C)=C[C@H]1c1c(O)cc(CCCCC)c2c1OCN(c1ccc(OC(F)(F)F)cc1)C2 [Il, (N-trifluoromethoxyphenyldihydrol-2H-oxazinyl)-cannabidiol]
< 50%: inhibition at 48 h, 20 µM (in vitro) | inhibition at 20 µM [1, 8] | inhibition at 20 µM [2, 10] | inhibition at 20 µM [3, 11] | inhibition at 20 µM [7, 18] | inhibition at 20 µM [4, 13] | inhibition at 20 µM [5, 15]

C=C(C)[C@@H]1CCC(C)=C[C@H]1c1c(O)cc(CCCCC)c2c1OCN(c1cnc3ccccc3c1)C2 [Im, (N-quinolinedihydrol-2H-oxazinyl)-cannabidiol]
< 50%: inhibition at 48 h, 20 µM (in vitro) | inhibition at 20 µM [1, 8] | inhibition at 20 µM [2, 10] | inhibition at 20 µM [3, 11] | inhibition at 20 µM [7, 18] | inhibition at 20 µM [4, 13] | inhibition at 20 µM [5, 15]

C=C(C)[C@@H]1CCC(C)=C[C@H]1c1c(O)cc(CCCCC)c2c1OCN(Cc1ccccc1)C2 [In, (N-benzyldihydrol-2H-oxazinyl)-cannabidiol]
< 50%: inhibition at 48 h, 20 µM (in vitro) | inhibition at 20 µM [2, 10] | inhibition at 20 µM [7, 18] | inhibition at 20 µM [5, 15]
> 50%: inhibition at 20 µM [1, 9] | inhibition at 20 µM [3, 12] | inhibition at 20 µM [4, 14]

C=C(C)[C@@H]1CCC(C)=C[C@H]1c1c(O)cc(CCCCC)c2c1OCN(c1ccccc1F)C2 [Io, (N-2-fluorophenyldihydrol-2H-oxazinyl)-cannabidiol]
< 50%: inhibition at 48 h, 20 µM (in vitro) | inhibition at 20 µM [1, 8] | inhibition at 20 µM [2, 10] | inhibition at 20 µM [3, 11] | inhibition at 20 µM [7, 18] | inhibition at 20 µM [4, 13] | inhibition at 20 µM [5, 15]
